Laboratory results taken from the supplement of paper PMC6045584.

compound: NC1(c2ccc(-c3nc4ccn5c(=O)[nH]nc5c4cc3-c3ccccc3)cc2)CCC1 [MK2206]; assay: area under dose-response curve of surviving fraction (unscaled, Aref=0) (surviving fraction x log10(nM)); higher = more resistant; details: exposure time: 5 days; dose range 0.5-1000 nM
In short: (§1)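 Inhibitor was applied to tumour cell lines at eight concentrations (0.5 to 1000 nM) for five days in 384-well plates. Luminescence from CellTiter-Glo, scaled to DMSO-only wells, gave surviving fractions in three screens per line, and these were fitted by 3-parameter logistic regression with the drc R package. The area under the curve is an unscaled activity area. Aref was 0, and dose was on a log10 scale.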

Test System	area under dose-response curve
MDAMB468 BREAST	3.04
MFM223 BREAST	2.57
MHM BONE	3.2
NY BONE	3.18
OS25HAL BONE	2.56
PCI30 HEADNECK	2.94
SG43 HEADNECK	2.3
SNU475 LIVER	3.02
SYO1 SYNOVIAL	2.79
T47D BREAST	2.61
U2OS BONE	3.14

compound: Nc1ccn([C@@H]2O[C@H](CO)[C@@H](O)C2(F)F)c(=O)n1 [GEMCITABINE]; assay: as above; details: exposure time: 5 days; dose range 0.5-1000 nM
In short: as §1

Test System	area under dose-response curve
CADOES1 SOFT TISSUE	1.18
CAL51 BREAST	0.99
CASKI CERVIX	1.01
CHLA90 AUTONOMIC GANGLIA	1.39
COLO320DM LARGE INTESTINE	1.53
DU4475 BREAST	1.48
H23 LUNG	1.22
HCC70 BREAST	1.12
HCC78 LUNG	0.382
HCC1954 BREAST	1.75
HCT15 LARGE INTESTINE	1.15
HOS BONE	0.975
HSSYII SYNOVIAL	0.795
JIMT1 BREAST	1.44
MCF7 BREAST	1.94
MDAMB231 BREAST	2.29
MDAMB361 BREAST	2.69
MDAMB436 BREAST	1.85
MDAMB468 BREAST	1.09
MFM223 BREAST	1.99
MHM BONE	1.46
NY BONE	1.11
OS25HAL BONE	0.944
PCI30 HEADNECK	1.8
SG43 HEADNECK	2.1
SNU475 LIVER	1.81
SYO1 SYNOVIAL	0.79
T47D BREAST	2.72
U2OS BONE	1.49

compound: O=C(NOCC1CC1)c1ccc(F)c(F)c1Nc1ccc(I)cc1Cl; assay: as above; details: exposure time: 5 days; dose range 0.5-1000 nM
In short: as §1

Test System	area under dose-response curve
22RV1 PROSTATE	2.6
CADOES1 SOFT TISSUE	2.87
CAL51 BREAST	3.12
CAL120 BREAST	2.97
CASKI CERVIX	2.58
CHLA90 AUTONOMIC GANGLIA	2.38
COLO320DM LARGE INTESTINE	3.26
DU4475 BREAST	1.65
H23 LUNG	2.08
HCC70 BREAST	2.8
HCC78 LUNG	2.58
HCC1954 BREAST	3.07
HCT15 LARGE INTESTINE	2.63
HOS BONE	3.27
HSSYII SYNOVIAL	2.61
JIMT1 BREAST	3.11
KPD BONE	3.25

Test System	area under dose-response curve
MCF7 BREAST	2.83
MDAMB134 BREAST	2.87
MDAMB231 BREAST	3.01
MDAMB361 BREAST	3.27
MDAMB436 BREAST	2.96
MDAMB468 BREAST	3.21
MFM223 BREAST	3.55
MHM BONE	3.16
NY BONE	3.13
OS25HAL BONE	3.16
PCI30 HEADNECK	2.75
SG43 HEADNECK	2.18
SNU475 LIVER	2.41
SYO1 SYNOVIAL	2.4
T47D BREAST	3.24
U2OS BONE	3.26

compound: O=C(O)CC[C@H]1CC[C@@](c2cc(F)ccc2F)(S(=O)(=O)c2ccc(Cl)cc2)CC1 [MK0752]; assay: as above; details: exposure time: 5 days; dose range 0.5-1000 nM
In short: as §1

Test System	area under dose-response curve
22RV1 PROSTATE	3.57
CADOES1 SOFT TISSUE	3.14
CAL51 BREAST	3.32
CAL120 BREAST	3.37
CASKI CERVIX	3.28
CHLA90 AUTONOMIC GANGLIA	3.36
COLO320DM LARGE INTESTINE	3.87
DU4475 BREAST	3.26
H23 LUNG	3.65
HCC70 BREAST	3.56
HCC78 LUNG	3.32
HCC1954 BREAST	3.08
HCT15 LARGE INTESTINE	3.61
HOS BONE	3.51
HSSYII SYNOVIAL	3.29
JIMT1 BREAST	3.29
KPD BONE	3.43

Test System	area under dose-response curve
MCF7 BREAST	3.07
MDAMB134 BREAST	3.51
MDAMB231 BREAST	3.28
MDAMB361 BREAST	2.88
MDAMB436 BREAST	3.02
MDAMB468 BREAST	3.61
MFM223 BREAST	3.93
MHM BONE	3.45
NY BONE	3.54
OS25HAL BONE	3.42
PCI30 HEADNECK	3.5
SG43 HEADNECK	3.25
SNU475 LIVER	3.31
SYO1 SYNOVIAL	3.26
T47D BREAST	3.56
U2OS BONE	3.56
